The subject of one experiment is Sclerotinia sclerotiorum. The experiment can be described thus: Antifungal activity against Sclerotinia sclerotiorum assessed as inhibition of mycelium growth on potato dextrose agar at 25 +/- 1 degC for 96 hr. It counts as functional, organism-based.
In another experiment the test system is Botrytis cinerea. Put plainly: Antifungal activity against Botryotinia fuckeliana assessed as inhibition of mycelium growth on potato dextrose agar at 25 +/- 1 degC for 96 hr. It counts as functional, organism-based.

Converted amounts (≈) assume the structure as drawn.

As a reminder, the EC50 is the midpoint of the concentration-response curve. As to `O=C(NC(=O)c1nc2cc(F)ccc2[nH]1)Nc1ccc([N+](=O)[O-])cc1`, the values for the EC50 with Sclerotinia sclerotiorum and with Botrytis cinerea were 8.71 µg/mL (≈ 25.4 µM) and 10.4 µg/mL (≈ 30.2 µM), respectively.
For `O=C(NC(=O)c1nc2cc(F)ccc2[nH]1)Nc1ccc(Cl)c(Cl)c1`, the EC50 in the experiment on Sclerotinia sclerotiorum was 9.03 µg/mL (≈ 24.6 µM); in the experiment with Botrytis cinerea, 11.5 µg/mL (≈ 31.5 µM).
With `O=C(NC(=O)c1nc2cc(F)ccc2[nH]1)Nc1ccc(Br)cc1`, the results for the EC50 in the experiment with Sclerotinia sclerotiorum and with Botrytis cinerea were 8.66 µg/mL (≈ 23 µM) and 13.6 µg/mL (≈ 36.1 µM), respectively.
Regarding `O=C(NC(=O)c1nc2cc(Cl)ccc2[nH]1)Nc1ccc(Br)cc1`, the figures for the EC50 with Sclerotinia sclerotiorum and in the experiment with Botrytis cinerea were 9.28 µg/mL (≈ 23.6 µM) and 3.94 µg/mL (≈ 10 µM), respectively.
For the molecule `O=C(NC(=O)c1nc2cc(Cl)ccc2[nH]1)Nc1ccc(Cl)cc1`, the EC50 with Sclerotinia sclerotiorum was determined as 6.05 µg/mL (≈ 17.3 µM); in the experiment with Botrytis cinerea, 18.9 µg/mL (≈ 54 µM).
Consider `O=C(NC(=O)c1nc2cc(Cl)ccc2[nH]1)Nc1ccc(Cl)c(Cl)c1`, for which the concentration giving a half-maximal response (EC50) was determined as 5.5 µg/mL (≈ 14.3 µM) in the experiment with Sclerotinia sclerotiorum and 12.6 µg/mL (≈ 33 µM) in the experiment on Botrytis cinerea.
Turning to `O=C(NC(=O)c1nc2cc(F)ccc2[nH]1)Nc1ccc(Cl)cc1`, the EC50 in the experiment with Sclerotinia sclerotiorum turned out to be 14.6 µg/mL (≈ 43.9 µM); in the experiment on Botrytis cinerea, 4.65 µg/mL (≈ 14 µM).
On to `O=C(NC(=O)c1nc2cc(F)ccc2[nH]1)Nc1ccc(F)cc1`, for which the EC50 in the experiment on Sclerotinia sclerotiorum and in the experiment with Botrytis cinerea was 10.9 µg/mL (≈ 34.6 µM) in each case.
`O=C(NC(=O)c1nc2cc(Cl)ccc2[nH]1)Nc1ccccc1`: the figures for the EC50 in the experiment on Sclerotinia sclerotiorum and in the experiment with Botrytis cinerea were 11.7 µg/mL (≈ 37 µM) and 22.4 µg/mL (≈ 71.2 µM), respectively.
The corresponding values for `COC(=O)NC(=S)Nc1ccccc1NC(=S)NC(=O)OC` [THIOPHANATE METHYL] are 10.5 µg/mL (≈ 30.5 µM) and 1.03 µg/mL (≈ 3.01 µM).
`O=C(NC(=O)c1nc2cc(Cl)ccc2[nH]1)Nc1ccc(F)cc1`: the EC50 was determined as 6.23 µg/mL (≈ 18.7 µM) in the experiment on Sclerotinia sclerotiorum and 8.76 µg/mL (≈ 26.3 µM) in the experiment on Botrytis cinerea.
In the case of `O=C(NC(=O)c1nc2cc(F)ccc2[nH]1)Nc1ccccc1`, the EC50 in the experiment with Sclerotinia sclerotiorum stood at 6.55 µg/mL (≈ 22 µM); in the experiment with Botrytis cinerea, 19.9 µg/mL (≈ 66.9 µM).
For `O=C(NC(=O)c1nc2cc(Cl)ccc2[nH]1)Nc1ccc([N+](=O)[O-])cc1`, the figures for the EC50 with Sclerotinia sclerotiorum and in the experiment with Botrytis cinerea were 9.14 µg/mL (≈ 25.4 µM) and 30.7 µg/mL (≈ 85.4 µM), respectively.

(Values after ChEMBL document CHEMBL3046731, “Synthesis and antifungal activity of 1-substitutedphenyl-3-(5-halobenzimidazol-2-yl) acylurea” (J Pestic Sci, 2010).)
